The test system of test [1] is K1 strain of P. falciparum. Briefly: IC50 determination against K1 strain of P. falciparum, SYBR green-based assay, 72 h. It is filed as cell-based. Particulars: Plasmodium falciparum, K1, 72 h, read-out: IC50 against K1 strain of P. falciparum. As to the method:
Based on the anecdotal evidence, two synthetic analogues of emetine dihydrochloride, (−)-R,S-dehydroemetine and (−)-S,S-dehydroisoemetine, were synthesized. Experiments to test drug efficacy were set up, and (−)-R,S-dehydroemetine was tested in 2-fold serial dilutions from 12.5 nM to 200 nM. A dose-response experiment was set up on synchronized ring stage cultures of the K1 strain of P. falciparum to be read at 72 h. […] (−)-S,S-dehydroisoemetine was tested in 2-fold serial dilutions from 0.625 μM to 10 μM. […]
Ring stage parasites were diluted to 0.5 to 1% parasitemia, 2.5% hematocrit (in a 96-well-plate format, 200-μl final well volume) and treated for 72 h. Dose-response parasitemia was determined using the SYBR green-based flow cytometer or plate reader method previously optimized in the laboratory ([14]).
Following drug efficacy experiments, 150-μl amounts from the control and drug-treated wells on a 96-well plate were transferred to microcentrifuge tubes, and samples were washed once with phosphate-buffered saline (PBS). […] Parasitemia was determined by measuring SYBR green fluorescence using the FITC channel of the BD FACSVerse flow cytometer system (blue laser; excitation laser line, 488 nm, with excitation maximum of 494 nm and emission maximum of […]) and cell size (forward scatter [FSC-A]). Fifty thousand events were recorded, in three replicates for each. […]

Test [2] has as its system K1 strain P. falciparum, unsynchronized cultures. Briefly: IC50 speed assay (time course) using unsynchronized cultures. It is filed as cell-based, Plasmodium falciparum. Conditions: for 24-h IC50 / Time by which the IC50 was reached: unsynchronized cultures; for 24-h IC50: 24 h exposure; for Time by which the IC50 was reached: IC50 speed assay. As to the method: Following drug efficacy experiments, 150-μl amounts from the control and drug-treated wells on a 96-well plate were transferred to microcentrifuge tubes, and samples were washed once with phosphate-buffered saline (PBS). The supernatant was removed, and samples were incubated in the dark at room temperature for 20 min following the addition of 1 ml of 5× SYBR green solution (prepared by adding 5 μl of 10,000× SYBR green to 10 ml PBS). After staining, the samples were centrifuged for 1 min at 14,000 rpm and the supernatant was discarded. Samples were resuspended in 250 μl of 0.37% formaldehyde fixation solution prepared by diluting 36.5% formaldehyde (Sigma, UK) with PBS to the specified final concentration. The samples were placed in the refrigerator and incubated at 4°C for 15 min. Subsequently, PBS was used to wash the samples 3 times, and finally, the samples were suspended in 1 ml PBS. Parasitemia was determined by measuring SYBR green fluorescence using the FITC channel of the BD FACSVerse flow cytometer system (blue laser; excitation laser line, 488 nm, with excitation maximum of 494 nm and emission maximum of […]) and cell size (forward scatter [FSC-A]). Fifty thousand events were recorded, in three replicates for each. Fluorescence events in drug-treated samples were compared with those in their infected and uninfected blood counterparts and gated accordingly to obtain the percentages of parasitemia.
The IC50 speed assay was used to determine the speeds of action of the emetine analogues. Unsynchronized cultures of K1 strain P. falciparum were used, and parasites were grown in the presence of (−)-R,S-dehydroemetine and (−)-S,S-dehydroisoemetine for three incubation periods of 24 h, 48 h, and 72 h. The assays were analyzed by determining SYBR green fluorescence as described above.
The results for the infected-blood controls were set at 100% for normalization, and percentages of parasitemia for drug-treated samples were calculated relative to the results for the infected controls. For IC50 values, GraphPad Prism 5.0 was used to further process the data. IC50 values were calculated using nonlinear regression (GraphPad Prism 5.0) by using log-transformed drug concentrations plotted against the dose response. The log(inhibitor) versus normalized response-variable slope option was used for IC50 calculation. Emetine dihydrochloride was used as a control drug to validate the method.

In test [3] the test system is male gametocytes in P. falciparum strain NF54. Briefly: Dual gamete formation assay, male gametocytes (exflagellation). It is filed as cell-based. Conditions: Plasmodium falciparum, 48 h incubation. The protocol: (§1) A bioassay was performed to assess the malaria transmission-blocking potential of compounds on P. falciparum strain NF54 by estimating their ability to prevent male mature gametocytes from progressing to male microgametes or/and to inhibit female gamete activation, as indicators of gametocyte functionality. The NF54 strain was selected for its increased ability to produce gametocytes under in vitro conditions ([45]). The activation of male gametocytes into mature microgametes is evaluated by the process of exflagellation (extrusion of rapidly waving flagellum-like microgametes from the infected erythrocyte). The activation of female gametocytes is evaluated based on the specific expression of the P. falciparum s25 (Pfs25) protein at the surface of the female activated gametes ([46]). […]
(§2) Asexual cultures of P. falciparum strain NF54 parasites were used to seed gametocyte cultures at 0.5% parasitemia, 4% hematocrit in a 50-ml total volume under 3% O2, 5% CO2, 92% N2 gas. […] Plates were analyzed to detect exflagellation centers. […] Then, plates were analyzed to detect female activated gametes. Activation of male gametes was detected based on light changes provoked by flagellar movements that caused movement of surrounding cells. A 10-frame video was taken and then analyzed to determine these changes in cell position based on changes in pixels. […]

Test [4] has as its system female gametocytes in P. falciparum strain NF54. Briefly: Dual gamete formation assay, female gametocytes (Pfs25 expression). Conditions: Plasmodium falciparum, 48 h incubation. It is filed as cell-based. As to the method: as §1, §2

Structures can show the parent of a compound that is named as a salt. Where only a bound is given, the exact number is not on record here.

Broadly, the IC50 is the midpoint of a concentration-inhibition curve.

Take `CCC1=C(C[C@H]2NCCc3cc(OC)c(OC)cc32)C[C@H]2c3cc(OC)c(OC)cc3CCN2C1` [(−)-R,S-dehydroemetine, (S)-2-((R)-6,7-dimethoxy-1,2,3,4-tetrahydro-isoquinolin-1-ylmethyl)-3-ethyl-9,10-dimethoxy-1,6,7,11b-tetrahydro-4H-pyrido[2,1-a]isoquinoline * dihydrobromide]: the IC50 in test [1] is 71 ± 6.1 nM; in test [3], 0.43 µM; in test [4], 1.04 µM. For the same compound, the “% Parasitaemia” value is on record as 99.25% in test [2] (25 nM, 24 hours); 95.85% in test [2] (25 nM, 48 hours); 98.62% in test [2] (25 nM, 72 hours); 93.88% in test [2] (50 nM, 24 hours); 69.64% in test [2] (50 nM, 48 hours); 89.44% in test [2] (50 nM, 72 hours). Also, the “% Parasitaemia” value is 89.00% in test [2] (100 nM, 24 hours); 30.44% in test [2] (100 nM, 48 hours); 17.06% in test [2] (100 nM, 72 hours); 77.03% in test [2] (200 nM, 24 hours); 22.37% in test [2] (200 nM, 48 hours); 13.20% in test [2] (200 nM, 72 hours). The “% Parasitaemia” value worked out at 72.09% in test [2] (400 nM, 24 hours); 19.29% in test [2] (400 nM, 48 hours); 11.63% in test [2] (400 nM, 72 hours). Also, the “24-h IC50” value in test [2] is reported as “could not be reached within 24 h”. Besides, in test [2], the “Time by which the IC50 was reached” value is reported as no more than 48 h.

With `CCC1=C(C[C@@H]2NCCc3cc(OC)c(OC)cc32)C[C@H]2c3cc(OC)c(OC)cc3CCN2C1` [(−)-S,S-dehydroisoemetine, (S)-2-((S)-6,7-dimethoxy-1,2,3,4-tetrahydro-isoquinolin-1-ylmethyl)-3-ethyl-9,10-dimethoxy-1,6,7,11b-tetrahydro-4H-pyrido[2,1-a]isoquinoline * dihydrobromide], the IC50 in test [1] was 2070 ± 260 nM; in test [3], greater than 10 µM; in test [4] it was greater than 10 µM. Besides, the “% Parasitaemia” value in test [2] (0.63 μM, 24 hours) amounted to 100.96%; in test [2] (0.63 μM, 48 hours), 83.33%; in test [2] (0.63 μM, 72 hours) it was 102.96%; in test [2] (1.25 μM, 24 hours), 95.69%; in test [2] (1.25 μM, 48 hours), 69.00%; in test [2] (1.25 μM, 72 hours) it was 74.67%. Besides, the “% Parasitaemia” value in test [2] (2.5 μM, 24 hours) is 100.62%; in test [2] (2.5 μM, 48 hours), 45.41%; in test [2] (2.5 μM, 72 hours) it was 31.88%; in test [2] (5 μM, 24 hours), 92.15%; in test [2] (5 μM, 48 hours), 30.49%; in test [2] (5 μM, 72 hours), 22.99%. The “% Parasitaemia” value in test [2] (10 μM, 24 hours) is recorded as 79.97%; in test [2] (10 μM, 48 hours), 24.20%; in test [2] (10 μM, 72 hours), 13.33%. For the same compound, in test [2], the “24-h IC50” value is listed as “could not be reached within 24 h”. In addition, in test [2], the “Time by which the IC50 was reached” value was no more than 48 h.
